pEC50, pIC50: −log10 of the molar value.
What was measured:
PI3Kβ = biological target: T1, PI3Kβ (Homo sapiens, UniProt P42338); test: PI3 Kinase HTRF assay, PI3Kβ; format: biochemical; details: Between 1 μM and 10 μM; read-out: PI3K β IC50
T1 construct: purchased Millipore Corporation 14-603-K
Text: (§1) A PI3-Kinase HTRF® assay kit (cat No. 33-016) purchased from Millipore Corporation was used to screen compounds provided herein. This assay used specific, high affinity binding of the GRP1 pleckstrin homology (PH) domain to PIP3, the product of a Class 1A or 1B PI3 Kinase acting on its physiological substrate PIP2. During the detection phase of the assay, a complex was generated between the GST-tagged PH domain and biotinylated short chain PIP3. The biotinylated PIP3 and the GST-tagged PH domain recruited fluorophores (Streptavidin-Allophycocyanin and Europium-labeled anti-GST respectively) to form the fluorescence resonance energy transfer (FRET) architecture, generating a stable time-resolved FRET signal. The FRET complex was disrupted in a competitive manner by non-biotinylated PIP3, a product formed in the PI3 Kinase assay.
(§2) PI3 Kinase α, β, γ and δ activity was assayed using the PI3 Kinase HTRF® assay kit (catalogue No. 33-016) purchased from Millipore Corporation. Purified recombinant PI3Kα (catalogue No. 14-602-K), PI3Kβ (catalogue No. 14-603-K), PI3Kγ (catalogue No. 14-558-K) and PI3Kδ (catalogue No. 14-604-K) were obtained from Millipore Corporation. Purified recombinant PI3K enzyme was used to catalyze the phosphorylation of phosphatidylinositol 4,5-bisphosphate (PIP2 at 10 μM) to phosphatidylinositol 3,4,5-trisphosphate (PIP3) in the presence of 10 μM ATP. The assay was carried out in 384-well format and detected using a Perkin Elmer EnVision Xcite Multilabel Reader. Emission ratios were converted into percent inhibitions and imported into GraphPad Prism software. The concentration necessary to achieve inhibition of enzyme activity by 50% (IC50) was calculated using concentrations ranging from 20 μM to 0.1 nM (12-point curve). IC50 values were determined using a nonlinear regression model available in GraphPad Prism 5.

Balb/c splenic B cells = test: B cell activation and proliferation assay (Alamar Blue); format: cell-based; details: Mus musculus
Description: The ability of one or more subject compounds to inhibit B cell activitation and proliferation is determined according to standard procedures known in the art. For example, an in vitro cellular proliferation assay is established that measures the metabolic activity of live cells. The assay is performed in a 96 well microtiter plate using Alamar Blue reduction. Balb/c splenic B cells are purified over a Ficoll-Paque™ PLUS gradient followed by magnetic cell separation using a MACS B cell Isolation Kit (Miletenyi). Cells are plated in 90 μl at 50,000 cells/well in B Cell Media (RPMI+10% FBS+Penn/Strep+50 μM bME+5 mM HEPES). A compound provided herein is diluted in B Cell Media and added in a 10 μl volume. Plates are incubated for 30 min at 37° C. and 5% CO2 (0.2% DMSO final concentration). A 50 μl B cell stimulation cocktail is then added containing either 10 μg/ml LPS or 5 μg/ml F(ab′)2 Donkey anti-mouse IgM plus 2 ng/ml recombinant mouse IL4 in B Cell Media. Plates are incubated for 72 hours at 37° C. and 5% CO2. A volume of 15 μL of Alamar Blue reagent is added to each well and plates are incubated for 5 hours at 37° C. and 5% CO2. Alamar Blue fluoresce is read at 560Ex/590Em, and IC50 or EC50 values are calculated using GraphPad Prism 5.

PI3Kα = biological target: T2, PI3Kα (Homo sapiens, UniProt P42336); test: PI3 Kinase HTRF assay, PI3Kα; format: biochemical; details: Between 1 μM and 10 μM; read-out: PI3K α IC50
T2 construct: purchased Millipore Corporation 14-602-K
T2 sequence (P42336 whole entry): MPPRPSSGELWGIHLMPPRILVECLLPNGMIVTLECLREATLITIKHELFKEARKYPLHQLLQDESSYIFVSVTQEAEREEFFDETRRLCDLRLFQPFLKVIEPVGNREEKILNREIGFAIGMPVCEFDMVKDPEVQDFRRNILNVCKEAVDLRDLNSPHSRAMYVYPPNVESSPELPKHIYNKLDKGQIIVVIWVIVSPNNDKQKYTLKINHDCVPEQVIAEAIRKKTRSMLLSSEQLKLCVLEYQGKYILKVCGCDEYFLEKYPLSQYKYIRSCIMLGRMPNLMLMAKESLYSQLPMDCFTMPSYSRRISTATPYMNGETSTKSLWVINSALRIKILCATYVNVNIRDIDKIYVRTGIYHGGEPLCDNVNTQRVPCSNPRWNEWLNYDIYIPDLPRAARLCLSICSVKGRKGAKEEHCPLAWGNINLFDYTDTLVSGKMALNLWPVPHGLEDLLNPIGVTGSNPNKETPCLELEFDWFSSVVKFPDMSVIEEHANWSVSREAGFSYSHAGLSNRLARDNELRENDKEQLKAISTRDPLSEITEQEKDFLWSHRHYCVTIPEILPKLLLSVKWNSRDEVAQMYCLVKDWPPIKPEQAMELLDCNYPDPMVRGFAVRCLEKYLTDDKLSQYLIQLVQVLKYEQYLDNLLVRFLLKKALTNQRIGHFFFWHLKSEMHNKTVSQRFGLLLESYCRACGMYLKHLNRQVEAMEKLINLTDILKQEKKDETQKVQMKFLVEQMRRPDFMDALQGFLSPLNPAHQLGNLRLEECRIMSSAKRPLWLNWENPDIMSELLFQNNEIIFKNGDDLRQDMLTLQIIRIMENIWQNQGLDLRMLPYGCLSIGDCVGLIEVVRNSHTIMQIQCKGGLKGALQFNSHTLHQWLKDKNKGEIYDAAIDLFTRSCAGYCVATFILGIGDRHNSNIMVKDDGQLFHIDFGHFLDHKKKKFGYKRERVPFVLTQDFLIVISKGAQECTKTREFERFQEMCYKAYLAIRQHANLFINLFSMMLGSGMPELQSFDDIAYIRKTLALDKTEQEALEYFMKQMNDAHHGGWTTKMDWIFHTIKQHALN
T2 sequence (P27986 whole entry partner): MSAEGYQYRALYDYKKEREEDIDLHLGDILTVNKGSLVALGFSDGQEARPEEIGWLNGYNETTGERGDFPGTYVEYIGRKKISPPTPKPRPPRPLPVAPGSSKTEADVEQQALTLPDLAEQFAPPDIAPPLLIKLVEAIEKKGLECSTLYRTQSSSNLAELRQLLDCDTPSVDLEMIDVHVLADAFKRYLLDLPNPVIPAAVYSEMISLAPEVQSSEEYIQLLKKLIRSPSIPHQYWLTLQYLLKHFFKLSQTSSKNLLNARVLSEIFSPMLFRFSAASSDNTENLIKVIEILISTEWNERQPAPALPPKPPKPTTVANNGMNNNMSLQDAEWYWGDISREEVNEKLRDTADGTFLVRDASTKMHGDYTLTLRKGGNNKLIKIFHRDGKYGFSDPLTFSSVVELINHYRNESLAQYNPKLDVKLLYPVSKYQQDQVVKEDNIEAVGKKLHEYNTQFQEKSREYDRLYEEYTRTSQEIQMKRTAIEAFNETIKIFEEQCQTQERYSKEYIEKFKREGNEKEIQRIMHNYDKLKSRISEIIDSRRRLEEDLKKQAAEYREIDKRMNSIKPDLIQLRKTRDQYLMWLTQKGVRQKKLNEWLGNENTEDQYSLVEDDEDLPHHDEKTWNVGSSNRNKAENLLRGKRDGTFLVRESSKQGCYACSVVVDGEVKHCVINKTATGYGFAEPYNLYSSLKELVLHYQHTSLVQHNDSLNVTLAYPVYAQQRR
Text: as §1, §2

PI3Kγ = biological target: T3, PI3Kγ (Homo sapiens, UniProt P48736); test: PI3 Kinase HTRF assay, PI3Kγ; format: biochemical; details: Between 1 μM and 10 μM; read-out: PI3K γ IC50
T3 construct: purchased Millipore Corporation 14-558-K
T3 sequence (P48736 whole entry): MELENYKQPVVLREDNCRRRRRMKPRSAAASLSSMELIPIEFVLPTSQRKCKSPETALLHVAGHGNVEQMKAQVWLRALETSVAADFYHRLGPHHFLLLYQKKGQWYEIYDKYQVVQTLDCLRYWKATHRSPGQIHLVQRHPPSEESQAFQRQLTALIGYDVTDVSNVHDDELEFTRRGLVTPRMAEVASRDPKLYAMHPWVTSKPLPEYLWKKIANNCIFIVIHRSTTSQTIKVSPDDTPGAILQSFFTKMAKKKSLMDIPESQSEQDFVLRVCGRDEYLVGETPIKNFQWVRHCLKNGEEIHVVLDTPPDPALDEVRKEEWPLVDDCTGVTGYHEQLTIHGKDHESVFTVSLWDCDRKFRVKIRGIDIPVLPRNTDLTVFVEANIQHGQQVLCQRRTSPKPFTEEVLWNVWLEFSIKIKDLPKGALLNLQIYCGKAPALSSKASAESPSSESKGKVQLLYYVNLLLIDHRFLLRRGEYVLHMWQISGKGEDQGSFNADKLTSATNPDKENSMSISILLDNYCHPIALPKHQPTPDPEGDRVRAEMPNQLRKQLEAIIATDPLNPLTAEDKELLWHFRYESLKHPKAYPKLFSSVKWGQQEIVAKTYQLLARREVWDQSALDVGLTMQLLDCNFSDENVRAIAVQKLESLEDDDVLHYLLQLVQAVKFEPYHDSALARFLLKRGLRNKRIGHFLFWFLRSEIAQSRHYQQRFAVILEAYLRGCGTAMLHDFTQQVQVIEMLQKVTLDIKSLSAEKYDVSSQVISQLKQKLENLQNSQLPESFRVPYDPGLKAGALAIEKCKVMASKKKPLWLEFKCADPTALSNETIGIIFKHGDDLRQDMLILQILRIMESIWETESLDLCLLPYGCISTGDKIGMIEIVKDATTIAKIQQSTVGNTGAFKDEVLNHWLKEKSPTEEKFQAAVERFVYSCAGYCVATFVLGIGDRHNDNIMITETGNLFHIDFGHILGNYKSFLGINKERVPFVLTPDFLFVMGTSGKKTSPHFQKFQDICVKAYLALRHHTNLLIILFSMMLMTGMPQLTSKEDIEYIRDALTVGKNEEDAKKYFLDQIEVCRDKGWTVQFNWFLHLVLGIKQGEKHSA
Text: as §1, §2

[1] = tested on: phospho-AKT in RAW 264.7 cells; test: PI3Kγ selective cellular assay, phospho-AKT in C5a stimulated RAW 264.7 cells; format: cell-based; details: Mus musculus, RAW264.7, RAW 264.7 cell model
Text: A compound's ability in selectively inhibiting PI3Kγ can be assessed using RAW264.7 macrophages. Briefly, serum-starved PAW264.7 cells are stimulated with a known GPCR agonist C5a. (See, e.g., Camps et al., Nature Medicine (2005) 11(9): 936-943). Cells can be treated with test compounds prior to, simultaneously with, or subsequent to the stimulation by C5a. RAW 264.7 cells respond to the complement component fragment C5a through activation of the C5a receptor, and the C5a receptor activates macrophages and induces cell migration. Test compounds' ability to inhibit C5a-mediated AKT phosphorylation is indicative of selective inhibition of PI3Kγ. Thus, by monitoring the reduction of phospho-AKT in stimulated RAW 264.7 cells (using for example, phospho-AKT antibodies), a compound's potential efficacy in selectively inhibiting PI3Kγ can be assessed.
Certain compounds provided herein (e.g., Compounds 5, 38, 103, 105, 106, 107, 108, and 109) were tested in RAW 264.7 cell model using procedures as described above.

[2] = tested on: phospho-AKT in RAJI cells; test: PI3Kδ selective cellular assay, phospho-AKT in anti-IgM stimulated RAJI cells; format: cell-based; details: Homo sapiens; RAJI cell model
Text: A compound's ability in selectively inhibiting PI3Kδ can be assessed using RAJI cells, i.e., B lymphocyte cells derived from lymphoma patients. Briefly, serum-starved RAJI cells are stimulated with anti-human IgM, thereby causing signaling through the B-cell receptors, as described in, for example, He et al., Leukemia Research (2009) 33: 798-802. B-cell receptor signaling is important for the activation, differentiation, and survival of B cells and certain B-cell derived cancers. Reduction of phospho-AKT is indicative of compounds that may inhibit B-cell proliferation and function in certain diseases. By monitoring the reduction of phospho-AKT in stimulated RAJI cells (using for example, phospho-AKT antibodies), a compound's potential efficacy in selectively inhibiting PI3Kδ can be assessed.
Certain compounds provided herein (e.g., Compounds 5, 38, 103, 105, 106, 107, 108, and 109) were tested in RAJI cell model using procedures as described above.

[3] = range between 100 nM and 1 μM (bounds carry own units)

T1 sequence (P42338 whole entry): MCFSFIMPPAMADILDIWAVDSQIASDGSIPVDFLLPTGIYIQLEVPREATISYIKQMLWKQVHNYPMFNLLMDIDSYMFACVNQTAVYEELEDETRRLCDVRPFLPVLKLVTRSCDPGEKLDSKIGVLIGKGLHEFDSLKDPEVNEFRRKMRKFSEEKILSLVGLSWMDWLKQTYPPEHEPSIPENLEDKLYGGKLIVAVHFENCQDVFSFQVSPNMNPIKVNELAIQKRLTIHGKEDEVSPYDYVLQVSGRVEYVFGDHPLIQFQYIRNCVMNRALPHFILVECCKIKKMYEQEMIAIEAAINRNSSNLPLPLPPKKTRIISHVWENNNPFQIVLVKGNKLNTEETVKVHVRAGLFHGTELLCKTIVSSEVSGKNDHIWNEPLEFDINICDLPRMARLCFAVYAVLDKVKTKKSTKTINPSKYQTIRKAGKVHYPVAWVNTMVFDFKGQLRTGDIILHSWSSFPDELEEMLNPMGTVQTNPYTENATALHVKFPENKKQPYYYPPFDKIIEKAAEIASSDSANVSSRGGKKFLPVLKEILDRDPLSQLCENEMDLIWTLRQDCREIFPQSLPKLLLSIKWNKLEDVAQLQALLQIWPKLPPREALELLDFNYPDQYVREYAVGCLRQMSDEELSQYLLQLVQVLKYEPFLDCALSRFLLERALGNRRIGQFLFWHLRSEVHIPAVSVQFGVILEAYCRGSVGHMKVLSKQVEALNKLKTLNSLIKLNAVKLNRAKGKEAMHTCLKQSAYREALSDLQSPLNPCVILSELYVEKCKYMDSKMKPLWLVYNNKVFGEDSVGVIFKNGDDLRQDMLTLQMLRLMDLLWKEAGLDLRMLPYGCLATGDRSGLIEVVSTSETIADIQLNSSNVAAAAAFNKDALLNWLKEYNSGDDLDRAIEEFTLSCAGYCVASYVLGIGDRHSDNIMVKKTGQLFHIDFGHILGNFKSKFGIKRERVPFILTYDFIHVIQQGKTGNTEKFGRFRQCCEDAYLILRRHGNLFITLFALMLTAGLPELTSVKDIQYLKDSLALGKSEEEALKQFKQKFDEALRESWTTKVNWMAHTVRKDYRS
T1 sequence (P27986 2-724 partner limits assumed): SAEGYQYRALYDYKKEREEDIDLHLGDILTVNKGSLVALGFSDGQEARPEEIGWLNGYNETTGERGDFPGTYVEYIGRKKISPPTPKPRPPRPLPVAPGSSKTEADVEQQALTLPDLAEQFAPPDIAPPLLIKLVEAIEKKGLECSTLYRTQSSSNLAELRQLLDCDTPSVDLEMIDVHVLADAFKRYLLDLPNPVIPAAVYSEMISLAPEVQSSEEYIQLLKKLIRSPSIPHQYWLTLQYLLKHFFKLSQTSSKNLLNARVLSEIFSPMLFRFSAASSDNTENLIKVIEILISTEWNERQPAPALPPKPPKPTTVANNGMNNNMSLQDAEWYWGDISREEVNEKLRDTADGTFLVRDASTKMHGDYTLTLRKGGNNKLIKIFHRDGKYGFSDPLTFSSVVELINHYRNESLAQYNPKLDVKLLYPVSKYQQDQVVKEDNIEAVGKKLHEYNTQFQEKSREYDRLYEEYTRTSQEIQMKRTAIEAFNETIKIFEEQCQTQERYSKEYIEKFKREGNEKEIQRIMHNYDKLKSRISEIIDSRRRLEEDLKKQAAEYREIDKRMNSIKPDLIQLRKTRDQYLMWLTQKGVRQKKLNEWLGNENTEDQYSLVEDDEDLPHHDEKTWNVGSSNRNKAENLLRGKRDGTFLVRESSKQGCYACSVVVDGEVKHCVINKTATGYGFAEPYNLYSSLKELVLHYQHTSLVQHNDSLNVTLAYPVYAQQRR

Row | Structure (SMILES) | pIC50 (PI3Kβ) | pIC50 (PI3Kα) | pEC50 (Balb/c splenic B cells; Less than 100 nanoMolar) | also measured
1 | Cc1nsc2cc(C(C)Nc3ncnc4scnc34)n(-c3ccccc3)c(=O)c12 (stereo not drawn) [Compound 12] | 5.00 to 6.00 | – | > 7.00 | pIC50 (PI3Kγ): 5.00 to 6.00
2 | C[C@H](Nc1ncnc2scnc12)c1cc2cccc(C(=O)N3CCOCC3)c2c(=O)n1-c1ccccc1 [Compound 86] | – | – | – | pIC50 (PI3Kγ): 5.00 to 6.00
3 | C[C@H](Nc1ccnc2scnc12)c1cc2cccc(Cl)c2c(=O)n1-c1cccc(F)c1 [Compound 90] | – | 5.00 to 6.00 | > 7.00 | –
4 | C[C@H](Nc1ncnc2scnc12)c1cc2cccc(-c3ccnnc3)c2c(=O)n1-c1ccccc1 [Compound 92] | – | 5.00 to 6.00 | > 7.00 | –
5 | CCCCc1cccc2cc([C@H](C)Nc3ncnc4scnc34)n(-c3ccccc3)c(=O)c12 [Compound 96] | 5.00 to 6.00 | 5.00 to 6.00 | > 7.00 | –
6 | Cc1sc2ncnc(N[C@@H](C)c3cc4cccc(Cl)c4c(=O)n3-c3ccccc3)c2c1C [Compound 97] | – | – | – | pEC50 (Balb/c splenic B cells; Between 1 μM and 10 μM): 5.00 to 6.00; pIC50 (PI3Kγ): 5.00 to 6.00
7 | C[C@H](Nc1ncnc2scc(-c3ccccc3)c12)c1cc2cccc(Cl)c2c(=O)n1-c1ccccc1 [Compound 98] | – | – | – | pIC50 (PI3Kγ): 5.00 to 6.00
8 | Cc1cccc2cc([C@H](C)Nc3ncnc4scnc34)n(-c3cccc(F)c3)c(=O)c12 [Compound 100] | – | 5.00 to 6.00 | > 7.00 | –
9 | C[C@H](Nc1ncnc2scnc12)c1cc2cccc(Cl)c2c(=O)n1-c1ccon1 [Compound 105] | – | – | – | pIC50 [1, 3]: 6.00 to 7.00; pIC50 [2]: > 7.00
10 | Cc1ncc(-c2cccc3cc([C@H](C)Nc4ncnc5scnc45)n(-c4ccon4)c(=O)c23)cn1 [Compound 107] | – | – | – | pIC50 [1, 3]: 6.00 to 7.00; pIC50 [2]: > 7.00
11 | CC(C)n1c([C@H](C)Nc2ncnc3scnc23)cc2cccc(-c3ccnnc3)c2c1=O [Compound 108] | – | – | – | pIC50 [1]: 5.00 to 6.00; pIC50 [2]: > 7.00
12 | C[C@H](Nc1ncnc2scnc12)c1cc2cccc(-c3cncc(N)c3)c2c(=O)n1-c1ccccc1 [Compound 109] | – | 5.00 to 6.00 | – | pIC50 [1, 3]: 6.00 to 7.00; pIC50 [2]: > 7.00

Second part, led by results:

Row | pIC50 (PI3Kβ) | pIC50 (PI3Kα) | Structure (SMILES) | pEC50 (Balb/c splenic B cells; Less than 100 nanoMolar) | also measured
13 | 5.00 to 6.00 | 5.00 to 6.00 | Cc1ccc(-c2cccc3cc([C@H](C)Nc4ncnc5scnc45)n(-c4ccccc4)c(=O)c23)cn1 [Compound 6] | > 7.00 | –
14 | 5.00 to 6.00 | 5.00 to 6.00 | C[C@H](Nc1ncnc2scnc12)c1cc2cccc(-c3cnn(C)c3)c2c(=O)n1-c1cccc(F)c1 [Compound 10] | > 7.00 | –
15 | 5.00 to 6.00 | 5.00 to 6.00 | Cc1c(-c2cccc3cc([C@H](C)Nc4ncnc5scnc45)n(-c4ccccc4)c(=O)c23)cnn1C [Compound 43] | > 7.00 | –
16 | 5.00 to 6.00 | 5.00 to 6.00 | COc1ccc(-c2cccc3cc([C@H](C)Nc4ncnc5scnc45)n(-c4ccccc4)c(=O)c23)cc1 [Compound 44] | > 7.00 | –
17 | – | 5.00 to 6.00 | C[C@H](Nc1ncnc2scnc12)c1cc2cccc(-c3cnn(CCN4CCOCC4)c3)c2c(=O)n1-c1ccccc1 [Compound 48] | > 7.00 | –
18 | 5.00 to 6.00 | 5.00 to 6.00 | C[C@H](Nc1ncnc2scnc12)c1cc2cccc(/C=C/c3ccccc3)c2c(=O)n1-c1ccccc1 [Compound 49] | – | pEC50 (Balb/c splenic B cells; Between 100 nM and 1 μM): 6.00 to 7.00
19 | 5.00 to 6.00 | 5.00 to 6.00 | C[C@H](Nc1ncnc2scnc12)c1cc2cccc(-c3cnc(OCc4ccccc4)nc3)c2c(=O)n1-c1ccccc1 [Compound 53] | > 7.00 | –
20 | 5.00 to 6.00 | 5.00 to 6.00 | COc1ncc(-c2cccc3cc([C@H](C)Nc4ncnc5scnc45)n(-c4ccccc4)c(=O)c23)cc1C [Compound 56] | > 7.00 | –
21 | 5.00 to 6.00 | 5.00 to 6.00 | COc1ncc(-c2cccc3cc([C@H](C)Nc4ncnc5scnc45)n(-c4ccccc4)c(=O)c23)cc1C(F)(F)F [Compound 58] | > 7.00 | –
22 | – | 5.00 to 6.00 | COc1ncc(-c2cccc3cc([C@H](C)Nc4ncnc5scnc45)n(-c4cccc(F)c4)c(=O)c23)cn1 [Compound 60] | > 7.00 | –
23 | 5.00 to 6.00 | 5.00 to 6.00 | COc1ncc(-c2cccc3cc([C@H](C)Nc4ncnc5scnc45)n(C4CC4)c(=O)c23)cn1 [Compound 61] | > 7.00 | –
24 | 5.00 to 6.00 | 5.00 to 6.00 | Cc1ncc(-c2cccc3cc([C@H](C)Nc4ncnc5scnc45)n(C4CC4)c(=O)c23)cn1 [Compound 62] | > 7.00 | –
25 | – | 5.00 to 6.00 | C[C@H](Nc1ncnc2scnc12)c1cc2cccc(Cl)c2c(=O)n1C [Compound 81] | > 7.00 | –
26 | 5.00 to 6.00 | 5.00 to 6.00 | C[C@H](Nc1ncnc2scnc12)c1cc2cccc(-c3cnn(C)c3)c2c(=O)n1C [Compound 82] | – | pEC50 (Balb/c splenic B cells; Between 100 nM and 1 μM): 6.00 to 7.00; pIC50 (PI3Kγ): 5.00 to 6.00
27 | – | 5.00 to 6.00 | C[C@H](Nc1ncnc2scnc12)c1cc2cccc(C=O)c2c(=O)n1-c1ccccc1 [Compound 83] | > 7.00 | –
28 | – | 5.00 to 6.00 | COc1ncc(-c2cccc3cc([C@H](C)Nc4ccnc5scnc45)n(-c4ccccc4)c(=O)c23)cn1 [Compound 89] | > 7.00 | –
